# From patent US20220281848A1, “PYRAZOLE-SUBSTITUTED PYRROLIDINONES AS HERBICIDES” (FMC Corporation, priority 2019, published 2022)
# System: plants
# Assay: Test D pre-emergence, other plants of Tables D1 and D3
# Type: in vivo
# Details: preemergent, 20 DAA
# Method in brief: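 Seeds treated with herbicide safener; sown in soil; glasshouse, 16 h light, 65% humidity. Sprayed day 1 (pre) or ~day 12 (post). Spray in 0.2% v/v adjuvant. Scored 0–100 damage: 20 DAA pre, 15 d post.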
structure (smiles),measurement,setting,value
CCn1nc([C@@H]2CN(C)C(=O)[C@H]2C(=O)Nc2cccc(F)c2F)c2cccc(F)c21 [Compound 14],"damage to plant (100=total damage to plant; 0=no damage to plant), ABUTH",rate 15,0
same,"damage to plant (100=total damage to plant; 0=no damage to plant), ABUTH",rate 30,0
same,"damage to plant (100=total damage to plant; 0=no damage to plant), ABUTH",rate 60,0
same,"damage to plant (100=total damage to plant; 0=no damage to plant), ABUTH",rate 130,0
same,"damage to plant (100=total damage to plant; 0=no damage to plant), ABUTH",rate 250,10
same,"damage to plant (100=total damage to plant; 0=no damage to plant), ABUTH",rate 500,20
same,"damage to plant (100=total damage to plant; 0=no damage to plant), AMARE",rate 15,0
same,"damage to plant (100=total damage to plant; 0=no damage to plant), AMARE",rate 30,0
same,"damage to plant (100=total damage to plant; 0=no damage to plant), AMARE",rate 60,0
same,"damage to plant (100=total damage to plant; 0=no damage to plant), AMARE",rate 130,0
same,"damage to plant (100=total damage to plant; 0=no damage to plant), AMARE",rate 250,0
same,"damage to plant (100=total damage to plant; 0=no damage to plant), AMARE",rate 500,0
same,"damage to plant (100=total damage to plant; 0=no damage to plant), BIDPI",rate 15,0
same,"damage to plant (100=total damage to plant; 0=no damage to plant), BIDPI",rate 30,0
same,"damage to plant (100=total damage to plant; 0=no damage to plant), BIDPI",rate 60,0
same,"damage to plant (100=total damage to plant; 0=no damage to plant), BIDPI",rate 130,0
same,"damage to plant (100=total damage to plant; 0=no damage to plant), BIDPI",rate 250,0
same,"damage to plant (100=total damage to plant; 0=no damage to plant), BIDPI",rate 500,0
same,"damage to plant (100=total damage to plant; 0=no damage to plant), BRAPL",rate 15,30
same,"damage to plant (100=total damage to plant; 0=no damage to plant), BRAPL",rate 30,40
same,"damage to plant (100=total damage to plant; 0=no damage to plant), BRAPL",rate 60,60
same,"damage to plant (100=total damage to plant; 0=no damage to plant), BRAPL",rate 130,90
same,"damage to plant (100=total damage to plant; 0=no damage to plant), BRAPL",rate 250,90
same,"damage to plant (100=total damage to plant; 0=no damage to plant), BRAPL",rate 500,90
same,"damage to plant (100=total damage to plant; 0=no damage to plant), CYPES",rate 15,0
same,"damage to plant (100=total damage to plant; 0=no damage to plant), CYPES",rate 30,0
same,"damage to plant (100=total damage to plant; 0=no damage to plant), CYPES",rate 60,0
same,"damage to plant (100=total damage to plant; 0=no damage to plant), CYPES",rate 130,0
same,"damage to plant (100=total damage to plant; 0=no damage to plant), CYPES",rate 250,0
same,"damage to plant (100=total damage to plant; 0=no damage to plant), CYPES",rate 500,0
same,"damage to plant (100=total damage to plant; 0=no damage to plant), DIGSA",rate 15,60
same,"damage to plant (100=total damage to plant; 0=no damage to plant), DIGSA",rate 30,80
same,"damage to plant (100=total damage to plant; 0=no damage to plant), DIGSA",rate 60,90
same,"damage to plant (100=total damage to plant; 0=no damage to plant), DIGSA",rate 130,90
same,"damage to plant (100=total damage to plant; 0=no damage to plant), DIGSA",rate 250,90
same,"damage to plant (100=total damage to plant; 0=no damage to plant), DIGSA",rate 500,90
same,"damage to plant (100=total damage to plant; 0=no damage to plant), ECHCG",rate 15,30
same,"damage to plant (100=total damage to plant; 0=no damage to plant), ECHCG",rate 30,50
same,"damage to plant (100=total damage to plant; 0=no damage to plant), ECHCG",rate 60,70
same,"damage to plant (100=total damage to plant; 0=no damage to plant), ECHCG",rate 130,90
same,"damage to plant (100=total damage to plant; 0=no damage to plant), ECHCG",rate 250,90
same,"damage to plant (100=total damage to plant; 0=no damage to plant), ECHCG",rate 500,90
same,"damage to plant (100=total damage to plant; 0=no damage to plant), ELEIN",rate 15,0
same,"damage to plant (100=total damage to plant; 0=no damage to plant), ELEIN",rate 30,0
same,"damage to plant (100=total damage to plant; 0=no damage to plant), ELEIN",rate 60,0
same,"damage to plant (100=total damage to plant; 0=no damage to plant), ELEIN",rate 130,0
same,"damage to plant (100=total damage to plant; 0=no damage to plant), ELEIN",rate 250,0
same,"damage to plant (100=total damage to plant; 0=no damage to plant), ELEIN",rate 500,0
same,"damage to plant (100=total damage to plant; 0=no damage to plant), EPHHL",rate 15,0
same,"damage to plant (100=total damage to plant; 0=no damage to plant), EPHHL",rate 30,0
same,"damage to plant (100=total damage to plant; 0=no damage to plant), EPHHL",rate 60,0
same,"damage to plant (100=total damage to plant; 0=no damage to plant), EPHHL",rate 130,0
same,"damage to plant (100=total damage to plant; 0=no damage to plant), EPHHL",rate 250,10
same,"damage to plant (100=total damage to plant; 0=no damage to plant), EPHHL",rate 500,20
same,"damage to plant (100=total damage to plant; 0=no damage to plant), GLXMA",rate 15,0
same,"damage to plant (100=total damage to plant; 0=no damage to plant), GLXMA",rate 30,0
same,"damage to plant (100=total damage to plant; 0=no damage to plant), GLXMA",rate 60,0
same,"damage to plant (100=total damage to plant; 0=no damage to plant), GLXMA",rate 130,0
same,"damage to plant (100=total damage to plant; 0=no damage to plant), GLXMA",rate 250,0
same,"damage to plant (100=total damage to plant; 0=no damage to plant), GLXMA",rate 500,0
same,"damage to plant (100=total damage to plant; 0=no damage to plant), IPOHE",rate 15,0
same,"damage to plant (100=total damage to plant; 0=no damage to plant), IPOHE",rate 30,0
same,"damage to plant (100=total damage to plant; 0=no damage to plant), IPOHE",rate 60,0
same,"damage to plant (100=total damage to plant; 0=no damage to plant), IPOHE",rate 130,0
same,"damage to plant (100=total damage to plant; 0=no damage to plant), IPOHE",rate 250,0
same,"damage to plant (100=total damage to plant; 0=no damage to plant), IPOHE",rate 500,0
same,"damage to plant (100=total damage to plant; 0=no damage to plant), ORYSA",rate 15,0
same,"damage to plant (100=total damage to plant; 0=no damage to plant), ORYSA",rate 30,0
same,"damage to plant (100=total damage to plant; 0=no damage to plant), ORYSA",rate 60,0
same,"damage to plant (100=total damage to plant; 0=no damage to plant), ORYSA",rate 130,0
same,"damage to plant (100=total damage to plant; 0=no damage to plant), ORYSA",rate 250,0
same,"damage to plant (100=total damage to plant; 0=no damage to plant), ORYSA",rate 500,0
same,"damage to plant (100=total damage to plant; 0=no damage to plant), PANMI",rate 15,0
same,"damage to plant (100=total damage to plant; 0=no damage to plant), PANMI",rate 30,0
same,"damage to plant (100=total damage to plant; 0=no damage to plant), PANMI",rate 60,0
same,"damage to plant (100=total damage to plant; 0=no damage to plant), PANMI",rate 130,0
same,"damage to plant (100=total damage to plant; 0=no damage to plant), PANMI",rate 250,30
same,"damage to plant (100=total damage to plant; 0=no damage to plant), PANMI",rate 500,80
same,"damage to plant (100=total damage to plant; 0=no damage to plant), SETFA",rate 15,30
same,"damage to plant (100=total damage to plant; 0=no damage to plant), SETFA",rate 30,70
same,"damage to plant (100=total damage to plant; 0=no damage to plant), SETFA",rate 60,80
same,"damage to plant (100=total damage to plant; 0=no damage to plant), SETFA",rate 130,80
same,"damage to plant (100=total damage to plant; 0=no damage to plant), SETFA",rate 250,90
same,"damage to plant (100=total damage to plant; 0=no damage to plant), SETFA",rate 500,90
same,"damage to plant (100=total damage to plant; 0=no damage to plant), SIDSP",rate 15,10
same,"damage to plant (100=total damage to plant; 0=no damage to plant), SIDSP",rate 30,10
same,"damage to plant (100=total damage to plant; 0=no damage to plant), SIDSP",rate 60,30
same,"damage to plant (100=total damage to plant; 0=no damage to plant), SIDSP",rate 130,30
same,"damage to plant (100=total damage to plant; 0=no damage to plant), SIDSP",rate 250,80
same,"damage to plant (100=total damage to plant; 0=no damage to plant), SIDSP",rate 500,80
same,"damage to plant (100=total damage to plant; 0=no damage to plant), SORVU",rate 15,0
same,"damage to plant (100=total damage to plant; 0=no damage to plant), SORVU",rate 30,0
same,"damage to plant (100=total damage to plant; 0=no damage to plant), SORVU",rate 60,0
